Measurements taken from ChEMBL document CHEMBL5344418, “Recent developments in antimalarial activities of 4-aminoquinoline derivatives” (Eur J Med Chem, 2023).

Experiments:
Plasmodium falciparum [1] = experiment: Antiplasmodial activity against Plasmodium falciparum W2 assessed as reduction in plasmodial growth after 48 hrs by fluorescence based analysis; assay type: functional, organism-based; conditions: W2, 48 h
[2] = Cytotoxicity against African green monkey Vero cells assessed as reduction in cell viability incubated for 24 hrs by MTT assay; assay type: toxicity, cell-based; conditions: African green monkey (Chlorocebus sabaeus)
Plasmodium falciparum [3] = experiment: Antiplasmodial activity against Plasmodium falciparum K1 assessed as growth inhibition measured after 72 hrs by SYBR green dye based assay; assay type: functional, organism-based; conditions: K1, 72 h
Plasmodium falciparum [4] = experiment: Antiplasmodial activity against Plasmodium falciparum 3D7 assessed as growth inhibition measured after 72 hrs by SYBR green dye based assay; assay type: functional, organism-based; conditions: 3D7, 72 h
Plasmodium falciparum [5] = experiment: Antiplasmodial activity against chloroquine-sensitive Plasmodium falciparum NF54 by lactate dehydrogenase assay; assay type: functional, organism-based
[6] = Cytotoxicity against Chinese hamster CHO cells assessed as reduction in cell viability by MTT assay; assay type: toxicity, cell-based; conditions: Chinese hamster (Cricetulus griseus)

SMILES	IC50 (Plasmodium falciparum [1]) [nM]	IC50 at 24 h [2] [µM]	IC50 (Plasmodium falciparum [3]) [nM]	IC50 (Plasmodium falciparum [4]) [nM]	other results
O=C(CCN1C(=O)c2ccc(N3CCN(CCO)CC3)cc2C1=O)NCCCCCCNc1ccnc2cc(Cl)ccc12	180	> 165			
CCN1CCN(CC(Nc2ccnc3cc(Cl)ccc23)n2ccc3ccccc32)CC1 (centres undefined)			> 5000	4150	
Clc1ccc2c(NCCN3CCN(c4ncccn4)CC3)ccnc2c1			277	108	
O=C(CCN1C(=O)c2ccc(F)cc2C1=O)NCCCCNc1ccnc2cc(Cl)ccc12	220	110			
COc1ccc(/C=C/C(=O)c2ccc(S(=O)(=O)NCCCNc3cncc4cc(Cl)ccc34)cc2)cc1OC					IC50 (Plasmodium falciparum [5]): 320 nM; IC50 [6]: 43.4 µM
Clc1ccc2c(NC(CN3CCN(Cc4ccccc4)CC3)n3ccc4ccccc43)ccnc2c1 (centres undefined)			529	596	
CCN1CCN(CC(CCSC)Nc2ccnc3cc(Cl)ccc23)CC1 (centres undefined)			> 5000	2660	
CC(C)CC(CN1CCN(Cc2ccccc2)CC1)Nc1ccnc2cc(Cl)ccc12 (centres undefined)			> 1000	154	
CCN(CC)c1ccc2c(c1)C(=O)N(CC(=O)NCCCCNc1ccnc3cc(Cl)ccc13)C2=O	1170	46.9			
CCN(CC)c1ccc2c(c1)C(=O)N(CCC(=O)NCCCCCCNc1ccnc3cc(Cl)ccc13)C2=O	530	> 182			
O=C(CCN1C(=O)c2ccc(F)cc2C1=O)NCCNc1ccnc2cc(Cl)ccc12	360	93.2			
CC(C)CC(CN1CCN(Cc2ccc3c(c2)OCO3)CC1)Nc1ccnc2cc(C(F)(F)F)ccc12 (centres undefined)			46.5	22.6	
CC(C)CC(CN1CCN(Cc2ccc3c(c2)OCO3)CC1)Nc1ccnc2cc(Cl)ccc12 (centres undefined)			453	211	
O=C(CCN1C(=O)c2ccc(N3CCN(CCO)CC3)cc2C1=O)NCCCCNc1ccnc2cc(Cl)ccc12	140	169			
O=C(CN1C(=O)c2ccc(N3CCOCC3)cc2C1=O)NCCCCCCNc1ccnc2cc(Cl)ccc12	1780	20.2			
O=C(CCN1C(=O)c2ccc(N3CCOCC3)cc2C1=O)NCCNc1ccnc2cc(Cl)ccc12	130	26.5			
Clc1ccc2c(NC(Cc3ccccc3)CN3CCN(Cc4ccc5c(c4)OCO5)CC3)ccnc2c1 (centres undefined)			89	757	
CCN1CCN(CC(CC(C)C)Nc2ccnc3cc(Cl)ccc23)CC1 (centres undefined)			97.8	57	
O=C(CN1C(=O)c2ccc(N3CCN(CCO)CC3)cc2C1=O)NCCCCNc1ccnc2cc(Cl)ccc12	860	> 177			
O=C(CN1C(=O)c2ccccc2C1=O)NCCCCCCNc1ccnc2cc(Cl)ccc12	3350	248			
O=C(CCN1C(=O)c2ccccc2C1=O)NCCNc1ccnc2cc(Cl)ccc12	300	> 237			

SMILES	IC50 (Plasmodium falciparum [1]) [nM]	IC50 at 24 h [2] [µM]	IC50 (Plasmodium falciparum [3]) [nM]	IC50 (Plasmodium falciparum [4]) [nM]	other results
Clc1ccc2c(NC(Cc3ccccc3)CN3CCN(Cc4ccccc4)CC3)ccnc2c1 (centres undefined)			> 5000	> 5000	
CCC(C)C(CN1CCN(CC)CC1)Nc1ccnc2cc(Cl)ccc12 (centres undefined)			502	114	
CC(C)CC(CN1CCN(c2ccccc2)CC1)Nc1ccnc2cc(Cl)ccc12 (centres undefined)			> 1000	521	
CSCCC(CN1CCN(Cc2ccccc2)CC1)Nc1ccnc2cc(Cl)ccc12 (centres undefined)			> 5000	3100	
CC(CN1CCN(Cc2ccccc2)CC1)Nc1ccnc2cc(Cl)ccc12 (centres undefined)			84	405	
O=C(CCCN1C(=O)c2ccccc2C1=O)NCCCCCCCCNc1ccnc2cc(Cl)ccc12	580	102			
O=C(CCN1C(=O)c2ccc(N3CCOCC3)cc2C1=O)NCCCCCCNc1ccnc2cc(Cl)ccc12	640	> 178			
O=C(CCCN1C(=O)c2ccccc2C1=O)NCCCCCCNc1ccnc2cc(Cl)ccc12	1570	> 203			
O=C(CN1C(=O)c2ccccc2C1=O)NCCNc1ccnc2cc(Cl)ccc12	5650	> 245			
O=C(CN1C(=O)c2ccc(N3CCOCC3)cc2C1=O)NCCNc1ccnc2cc(Cl)ccc12	3210	> 203			
O=C(CCN1C(=O)c2ccccc2C1=O)NCCCCNc1ccnc2cc(Cl)ccc12	410	> 222			
O=C(CN1C(=O)c2ccc(N3CCN(CCO)CC3)cc2C1=O)NCCNc1ccnc2cc(Cl)ccc12	1040	> 186			
CCN(CC)c1ccc2c(c1)C(=O)N(CCC(=O)NCCNc1ccnc3cc(Cl)ccc13)C2=O		203			
O=C(CN1C(=O)c2ccc(F)cc2C1=O)NCCCCCCNc1ccnc2cc(Cl)ccc12	1490	> 207			
CCN1CCN(CC(Cc2ccccc2)Nc2ccnc3cc(Cl)ccc23)CC1 (centres undefined)			70.8	428	
O=C(c1ccco1)N1CCN(CCNc2ccnc3cc(Cl)ccc23)CC1			4230	993	
O=C(CCN1C(=O)c2ccc(F)cc2C1=O)NCCCCCCNc1ccnc2cc(Cl)ccc12	660	57.2			
Clc1ccc2c(NC(Cc3ccccc3)CN3CCN(c4ccccc4)CC3)ccnc2c1 (centres undefined)			1100	> 1000	
CC(C)CC(CN1CCN(c2ncccn2)CC1)Nc1ccnc2cc(Cl)ccc12 (centres undefined)			352	460	
O=C(CCCN1C(=O)c2ccccc2C1=O)NCCNc1ccnc2cc(Cl)ccc12	280	> 229			
CCN(CC)c1ccc2c(c1)C(=O)N(CC(=O)NCCNc1ccnc3cc(Cl)ccc13)C2=O	1140	44.4			

SMILES	IC50 (Plasmodium falciparum [1]) [nM]	IC50 at 24 h [2] [µM]	IC50 (Plasmodium falciparum [3]) [nM]	IC50 (Plasmodium falciparum [4]) [nM]	other results
O=C(CN1C(=O)c2ccc(F)cc2C1=O)NCCCCNc1ccnc2cc(Cl)ccc12	1050	> 220			
CCOC(=O)N1CCN(CC(CC(C)C)Nc2ccnc3cc(Cl)ccc23)CC1 (centres undefined)			412	857	
CCN(CC)c1ccc2c(c1)C(=O)N(CCC(=O)NCCCCNc1ccnc3cc(Cl)ccc13)C2=O	260	84.4			
O=C(CCN1C(=O)c2ccc(N3CCOCC3)cc2C1=O)NCCCCNc1ccnc2cc(Cl)ccc12	220	136			
O=C(CCN1C(=O)c2ccc(N3CCN(CCO)CC3)cc2C1=O)NCCNc1ccnc2cc(Cl)ccc12	280				
CCN1CCN(CC(C)Nc2ccnc3cc(Cl)ccc23)CC1 (centres undefined)			362	126	
O=C(CN1C(=O)c2ccccc2C1=O)NCCCCCCCCNc1ccnc2cc(Cl)ccc12	240	> 203			
O=C(CCN1C(=O)c2ccccc2C1=O)NCCCCCCNc1ccnc2cc(Cl)ccc12	290	87.5			
O=C(CCN1C(=O)c2ccccc2C1=O)NCCCCCCCCNc1ccnc2cc(Cl)ccc12	150	> 198			
O=C(CN1C(=O)c2ccc(N3CCN(CCO)CC3)cc2C1=O)NCCCCCCNc1ccnc2cc(Cl)ccc12	460	> 169			
CC(CN1CCN(c2ccccc2)CC1)Nc1ccnc2cc(Cl)ccc12 (centres undefined)			784	538	
CCOC(=O)N1CCN(CCNc2ccnc3cc(Cl)ccc23)CC1			162	899	
O=C(CN1C(=O)c2ccccc2C1=O)NCCCCNc1ccnc2cc(Cl)ccc12	3660	> 229			
CSCCC(CN1CCN(c2ccccc2)CC1)Nc1ccnc2cc(Cl)ccc12 (centres undefined)			> 5000	> 5000	
CCN1CCN(CC(CC(C)C)Nc2ccnc3cc(C(F)(F)F)ccc23)CC1 (centres undefined)			798	24.5	
O=C(CN1C(=O)c2ccc(N3CCOCC3)cc2C1=O)NCCCCNc1ccnc2cc(Cl)ccc12	1280	> 192			
O=C(CCCN1C(=O)c2ccccc2C1=O)NCCCCNc1ccnc2cc(Cl)ccc12	840	> 215			
O=C(CN1C(=O)c2ccc(F)cc2C1=O)NCCNc1cccc2cc(Cl)ccc12	1990	> 235			
CC(CN1CCN(Cc2ccc3c(c2)OCO3)CC1)Nc1ccnc2cc(Cl)ccc12 (centres undefined)			71.4	108	
Clc1ccc2c(NCCN3CCN(Cc4ccc5c(c4)OCO5)CC3)ccnc2c1			46.5	521	
CCN(CC)c1ccc2c(c1)C(=O)N(CC(=O)NCCCCCCNc1ccnc3cc(Cl)ccc13)C2=O	1220	> 187			
